Data taken from article PMC9775191, “A Subset Screen of the Compounds Australia Scaffold Library Identifies 7-Acylaminodibenzoxazepinones as Potent and Selective Hits for Anti-Giardia Drug Discovery” (Biomedicines, 2022).

Tested on: G. duodenalis BRIS/91/HEPU/1279
Experiment: Primary Giardia screen at 10 µM (live-cell imaging, automated counting)
Format: cell-based, Giardia duodenalis
Conditions: for % Inhibition n=1 48h / % Inhibition n=1 24h: first singlicate assay; for % Inhibition n=2 24h / % Inhibition n=2 48h: re-assessment
Method in brief: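 Singlicate, 10 μM final, 0.2% DMSO; sealed chambers, 3% O2/5% CO2/N2. Counts by live-cell imaging at 24 h and 48 h. % growth vs vehicle, media background subtracted; Z' per plate.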

Row | Compound | % Inhibition n=1 48h | other results
1 | CC(=O)N1CCCN(Cc2ncc(Cl)n2C)CC1 [SN00771536] | 46.7% | 
2 | COc1ccc(C)cc1NC(=O)Nc1c(-c2ccncc2)[nH]c2c(Cl)cccc12 [SN00795853] | 0.0% | 
3 | CCOc1ccc(-n2c(=O)c3sc4ncccc4c3n(CC(=O)NC3CCCCC3)c2=O)cc1 [SN00790499] | 13.5% | 
4 | COCCNC(=O)C1(C)Cn2c(cc3ccsc32)C(=O)N1c1ccc(OC)c(OC)c1 (centres unmarked) [SN00789817] | 0.0% | 
5 | CN(C)CC1CN(S(=O)(=O)c2ccccc2)CC12CCOCC2 (centres unmarked) [SN00801264] | 0.0% | 
6 | Cc1ccc(C(=O)N2CCC(Oc3ncccc3C(=O)N3CCCCC3)C2)c(C)c1 (centres unmarked) [SN00800036] | 0.0% | 
7 | O=C(c1cc2occc2c(Nc2ccc(F)cc2)n1)N1CCN(c2ccccn2)CC1 [SN00790827] | 53.8% | Average % Inhibition 24h: 14.2%; % Inhibition n=1 24h: 21.9%; % Inhibition n=2 24h: 6.5%; Average % Inhibition 48h: 31.0%; % Inhibition n=2 48h: 8.1%
8 | CN1c2ccccc2OCC1CC(=O)Nc1ccc(F)cc1 (centres unmarked) [SN00790682] | 7.6% | 
9 | CC1CN(c2nc3c(c(=O)[nH]c(=O)n3C)n2CC(=O)O)CC(C)O1 (centres unmarked) [SN00776554] | 4.6% | 
10 | Cc1cc(Cl)ccc1OCCCC(=O)Nc1nc2ccccc2[nH]1 [SN00783684] | 27.8% | 
11 | COc1cccc(CCC(=O)N2CCCC(c3nnc4n3CCCCC4)C2)c1 (centres unmarked) [SN00771943] | 2.6% | 
12 | COC(=O)c1c(NC(=O)Cn2nc(C(F)(F)F)c(Br)c2C)sc2c1CCCC2 [SN00794352] | 23.2% | 
13 | CCn1ccnc1CN1CCCN(C(=O)c2cnc(C)cn2)CC1 [SN00771476] | 10.9% | 
14 | Cc1c(CN(C)C(=O)c2cc3nc(-c4cccs4)cc(C(F)(F)F)n3n2)cnn1C [SN00783696] | 0.0% | 
15 | CC(C)CCNC(=O)C1(C)CCc2ccccc2C(=O)N1Cc1ccccc1F (centres unmarked) [SN00785390] | 14.6% | 
16 | CNC1(c2nnnn2-c2ccc(OC)cc2)CCCCC1 [SN00794158] | 11.8% | 
17 | Cc1ccc(-c2nc(-c3cccc(-c4ccn[nH]4)c3)no2)cc1 [SN00798298] | 55.6% | Average % Inhibition 24h: 6.3%; % Inhibition n=1 24h: 9.4%; % Inhibition n=2 24h: 3.2%; Average % Inhibition 48h: 41.5%; % Inhibition n=2 48h: 27.4%
18 | CCOC(=O)N1CCN(c2cc(-c3nc(-c4cccc(OC)c4OC)no3)c3ccccc3n2)CC1 [SN00796395] | 18.1% | 
19 | CC(C)Cn1cc2c3c(cccc31)CN(C(=O)Cc1cccs1)CC2 [SN00798552] | 35.1% | 
20 | Cc1nn(CCC(=O)Nc2cccc(F)c2)c(=O)c2noc(C)c12 [SN00778869] | 21.9% | Average % Inhibition 24h: 0.0%; % Inhibition n=1 24h: 0.0%; % Inhibition n=2 24h: 0.0%; Average % Inhibition 48h: 40.9%; % Inhibition n=2 48h: 59.9%
21 | Cc1ccc(-c2noc(-c3cccc(S(=O)(=O)N4CCN(c5ccc(F)cc5)CC4)c3)n2)cc1 [SN00797676] | 0.0% | 
22 | O=C(Cn1c(-c2cccnc2)noc1=O)NCC1CCCO1 (centres unmarked) [SN00781423] | 0.0% | 
23 | COc1ccc(S(=O)(=O)N2CCCC(C)(C(=O)NCc3ccc(F)cc3)C2)cc1 (centres unmarked) [SN00795932] | 8.4% | 
24 | O=C(NCc1ccc(F)cc1)N1CCCCC1c1nc(-c2ccccc2)no1 (centres unmarked) [SN00772110] | 0.0% | 
25 | Cc1cc(NC(=O)C2CCN(S(=O)(=O)c3c(C)n[nH]c3C)CC2)ccc1Br [SN00784824] | 11.8% | 
26 | O=C1C(=O)N(C2CCCC2)C(=O)N1Cc1nc(-c2ccsc2)no1 [SN00774178] | 0.0% | 
27 | CN1CC(c2nc3ccccc3[nH]2)CC1=O (centres unmarked) [SN00785951] | 0.0% | 

Row | Compound | % Inhibition n=1 48h | other results
28 | CCn1nc(C(=O)NCCOc2ccccc2)cc1-c1cc(C)sc1C [SN00802783] | 0.0% | 
29 | CCn1cc2c(n1)-c1c(oc(C(=O)Nc3ccc(F)cc3)c1C)CC2 [SN00787412] | 6.9% | 
30 | O=C(Nc1cccnc1)C1=NN(Cc2ccccc2)C(=O)CC1 [SN00779378] | 15.0% | 
31 | O=C(c1csc(-c2ccncc2)n1)N1CCN(c2ccccc2)CC1 [SN00794830] | 15.8% | 
32 | Cc1cc(C)cc(N2CCN(CCCNC(=O)c3nc(-c4ccncn4)no3)CC2)c1 [SN00802991] | 0.0% | 
33 | C=CCn1c(C)c(CC(=O)Nc2cc(F)ccc2C)c(=O)n2nc(-c3ccccc3)nc12 [SN00786890] | 40.6% | 
34 | Cc1ccc(CNC(=O)N2CCCN(c3ncccc3-c3nc(C4CC4)no3)CC2)cc1 [SN00800535] | 34.3% | 
35 | O=C(Cn1c2ncccc2c(=O)n1-c1ccccc1)NC1CCCC1 [SN00791196] | 18.2% | 
36 | Cn1c(C2CCN(C(=O)Nc3ccccc3F)CC2)cc(=O)n2nccc12 [SN00798982] | 3.2% | 
37 | Cc1cccc(-c2nc3sc(N4CCN(C(=O)NC(C)C)CC4)nn3c2NC(C)(C)C)c1 [SN00795313] | 0.0% | 
38 | O=C(Nc1ccc(F)cc1)c1nc2nc(-c3cccs3)cc(C(F)(F)F)n2n1 [SN00794266] | 18.7% | 
39 | Cn1cccc1C1CCCCCN1C(=O)CCSCc1nc2sc3c(c2c(=O)[nH]1)CCC3 (centres unmarked) [SN00778065] | 67.7% | Average % Inhibition 24h: 0.2%; % Inhibition n=1 24h: 0.0%; % Inhibition n=2 24h: 0.4%; Average % Inhibition 48h: 38.7%; % Inhibition n=2 48h: 9.8%
40 | O=C(Cc1ccccc1F)N1CCC(Nc2cccnc2)C1 (centres unmarked) [SN00801060] | 18.5% | 
41 | O=[N+]([O-])c1ncn(Cc2nc(-c3ccc(C(F)(F)F)cc3)no2)n1 [SN00779286] | 16.5% | 
42 | Cn1c(=O)[nH]c(=O)c2c1nc(N1CCNCC1)n2Cc1ccc(Br)cc1 [SN00776836] | 0.0% | 
43 | NC(=O)c1cnc(N2CCC3(CC2)CC3c2nc(-c3cccc(Cl)c3)no2)c(Cl)c1 (centres unmarked) [SN00773335] | 0.0% | 
44 | O=C(/C=C/c1cccc([N+](=O)[O-])c1)Nc1ccc2c(c1)nc1n2CCCCC1 [SN00770035] | 0.0% | 
45 | CCCCn1c(=O)[nH]c(=O)c2c1nc(-c1ccc(-c3ccc([N+](=O)[O-])cc3Cl)o1)n2C [SN00775787] | 19.8% | 
46 | Cc1ccc(S(=O)(=O)NC2CCN(C(=O)Cc3ccc(Br)cc3)CC2)cc1 [SN00795227] | 3.1% | 
47 | CCn1c(C2NC(N)=Nc3nc4ccccc4n32)nc2ccccc21 (centres unmarked) [SN00776112] | 5.4% | 
48 | COc1cc(CNCCNC(=O)c2nonc2N)ccc1OCc1ccc(F)cc1 [SN00784068] | 0.0% | 
49 | Cc1ccc2nc(-c3ccc(C)c(NC(=O)c4cccnc4)c3)[nH]c2c1 [SN00787045] | 8.2% | 
50 | COc1ccc2oc(-c3noc(C(NC(=O)c4ccco4)C(C)C)n3)c(C)c2c1 (centres unmarked) [SN00796606] | 9.9% | 
51 | O=c1[nH]c(CN2CCCCC2)nc2scc(-c3cccs3)c12 [SN00775605] | 0.0% | 
52 | CSc1ccc(CCNC(=O)c2ccc3c(c2)nc2n3CCOC2)cc1 [SN00792852] | 12.8% | 
53 | c1ccc(-n2nnnc2N2CCN(C3CC3)CC2)cc1 [SN00770081] | 0.0% | 
54 | O=C(N1CCN(c2cccc(Cl)c2)CC1)C1(S(=O)(=O)c2ccc(Cl)cc2)CC1 [SN00784607] | 0.0% | 
